Source: US8344177B2, “Albumin binding molecules and uses thereof” (Philochem AG, priority 2006, dated 2013)
pKd: −log10 of the molar value.

Assays:
[1] = background, reference 2; cited from earlier work
[2] = MRI analysis of major blood vessels of the brain; assay type: in vivo, C57/B16 mice; conditions: mice, 1.2 μmol i.v.
Description: All animal experiments were carried out in strict adherence to the Swiss law for animal protection. MR measurements were performed on a Bruker PharmaScan 47/16 MR system (Bruker BioSpin GmbH) operating at 200 MHz using a circular cryogenic surface coil for signal transmission and reception. Mice were anesthetized with 1.4-1.5% isoflurane in air:O2 (4:1). Scout scans were performed to asses the anatomy of the animal. The shortening effect of both contrast agents DTPA-Gd and 428-D-Lys-β-Ala-DTPA-Gd on the longitudinal blood relaxation time (T1) was investigated in two C57/B16 mice. For this purpose, transverse cine 2D images were acquired using the following sequence parameters: field of view (FOV): 19×19×0.5 mm3, matrix size: 128×128, flip angle: 15°, TE/TR: 3.0/14 ms, averages: 6, repetitions: 50, temporal resolution: 10.75 s, total scan time: 8 min 57 s. The inflowing blood was saturated by exciting a 4 mm thick slice (flip angle15°) cranial to the imaging plane. Contrast agents were injected into the tail vein after a baseline of twenty repetitions. Firstly, a dose of 1.2 μmol of DTPA-Gd and secondly, after a wait time of 30 min, a dose of 1.2 μmol of 428-D-Lys-β-Ala-DTPA-Gd was administered. The time course of the MR signal was analyzed in a large vessel and normalized to the baseline value for comparison.

albumin = albumin (Homo sapiens, UniProt P02768); conditions: background statement; cited from earlier work
[3] = high doses, bolus injection; depending on the patient group; cited from earlier work
HSA = HSA (Homo sapiens, UniProt P02768); test: Fluorescence polarisation with increasing amounts of HSA; assay type: binding; conditions: 100 nM compound, PBS, 1 h at 25° C., read-out: dissociation constant
Description: 100 nM of 428-D-Lys-FAM, 622-D-Lys-FAM and, for comparison, of fluorescein and of phenethylamine-FAM were incubated with increasing amounts of HSA in PBS for 1 h at 25° C. The fluorescence polarization was determined by excitation at 485 nm and measurement at 535 nm.

[4] = Pharmacokinetic profiles of fluorescein and FAM derivatives in mouse (LC/MS/MS of plasma); assay type: in vivo, 129SvPas mice; conditions: for half-life: 129SvPas, mouse, in vivo, iv, 20 nmol
Description: In a further in vivo experiment, the pharmacokinetic properties of fluorescein, phenethylamine-FAM, 428-D-Lys-FAM, and 622-D-Lys-FAM were measured and compared. Clearance profiles for the four compounds differed distinctly (FIG. 14).
Pharmacokinetic analyses were performed under the Project Licenses 198/2005 of the Veterinaramt des Kantons Zürich (issued to Dario Neri). 129SvPas mice were injected into the tail vein with 20 nmol of fluorescein, Phenethylamine-FAM, 428-D-Lys-FAM, or 622-D-Lys-FAM dissolved in 100 μl of 100 mM Tris/HCl, 105 mM NaCl, pH 8.2 (2 mice each). 20-30 μl blood samples were taken from the vena saphena with EDTA coated capillaries (Sarstedt) 1, 5, 15, 30, 60, 120, 240, 360, 480 and 1440 minutes after injection and centrifuged. 5-10 μl of plasma were mixed with 40 μl of 0.1% trifluoroacetic acid and 200 μl of ethanol and incubated on ice for 1 hour. After one hour the samples were centrifuged to remove the precipitated proteins. The supernatant was dried under vacuum and subsequently redissolved in 50 μl of DMSO/H2O. 40 μl were injected into an LC/MS/MS system (Micromass Quattro micro API) and run on a linear gradient from in 0.1% HCOOH from 5% to 95% acetonitrile in ten minutes on a Waters XTerra MS C18 column ([…], 1×50 mm) while observing the daughter ions with m/z of 287.1 and 202.1 of the parent ion 333.1 for fluorescein, with m/z of 287.3 and 332.3 of the parent ion 480.2 for Phenethylamine-FAM, with m/z of 287.3, 377.2 and 505.2 of the parent ion 777.1 for 428-D-Lys-FAM, and with m/z of 287.3 and 505.4 of the parent ion 651.3 for 622-D-Lys-FAM. Comparing the area under the curve with a previously obtained dilution series of fluorescein and 428-D-Lys-FAM in plasma with identical sample preparation allowed the quantification of the molecules.

[5] = Fluorescein angiographic analysis of the retina (scanning-laser ophthalmoscopy); assay type: in vivo, C57BL/6 mice; conditions: mice, 50 nmol i.v.
Description: To obtain functional information on the imaging properties of 428-D-Lys-FAM, a fluorescein angiographic analysis of the retina was performed. Fluorescein and 428-D-Lys-FAM were injected i.v. into mice and pictures of the eye fundus taken at different time-points. The fluorescein angiographic pictures confirmed the results of the pharmacokinetic studies.
Scanning-laser opthalmoscopy imaging was performed with a Heidelberg Retina Angiograph (HRA I, Heidelberg Engineering, Germany), a confocal scanning-laser opthalmoscope, according to previously described procedures [see reference 39]. Briefly, wild-type C57BL/6 mice were anaesthetized with ketamine (66.7 mg/kg) and xylazine (11.7 mg./kg), and their pupils were dilated with tropicamide eye drops (Mydriaticum Stulln, Pharma Stulln, Germany). The HRA features two argon wavelengths (488 nm and 514 nm) in the short wavelength range and two infrared diode lasers (795 nm and 830 nm) in the long wavelength range. The laser wavelength of 488 nm was used for fluorescein angiography, with a barrier filter at 500 nm. Four mice each received either 50 nmol of fluorescein or 428-D-Lys-FAM dissolved in 100 μl of 100 mM Tris/HCl, 105 mM NaCl, pH 8.2 injected i.v. into the tail. […] In particular, the brightness value in this study was fixed so that the brightest image (428-D-Lys-FAM at 1 minute following injection) could be recorded without overexposure. […]

[6] = Pharmacokinetic profile of 428-ε-Lys-α-NH-FITC vs. fluorescein in mice (LC/MS/MS of serum); design: species or system 129SV mice; conditions: 129SV, mouse, in vivo
Description: The pharmacokinetic properties of conjugates of the invention are evaluated by injection of both said conjugate and the corresponding unconjugated agent (i.e. the agent that has not been modified by a compound of the invention) into mice and subsequent sampling of the conjugate and agent concentrations. Conjugate and agent concentrations are determined by Liquid Chromatography/Mass Spectrometry/Mass Spectrometry (LC-MS/MS) according to techniques known in the art.
100 μl of a 170 μM solution of fluorescein and of 428-ε-Lys-α-NH-FITC were injected into 2 pairs of immunocompetent 129SV mice.

HSA, sequence (P02768 25-609): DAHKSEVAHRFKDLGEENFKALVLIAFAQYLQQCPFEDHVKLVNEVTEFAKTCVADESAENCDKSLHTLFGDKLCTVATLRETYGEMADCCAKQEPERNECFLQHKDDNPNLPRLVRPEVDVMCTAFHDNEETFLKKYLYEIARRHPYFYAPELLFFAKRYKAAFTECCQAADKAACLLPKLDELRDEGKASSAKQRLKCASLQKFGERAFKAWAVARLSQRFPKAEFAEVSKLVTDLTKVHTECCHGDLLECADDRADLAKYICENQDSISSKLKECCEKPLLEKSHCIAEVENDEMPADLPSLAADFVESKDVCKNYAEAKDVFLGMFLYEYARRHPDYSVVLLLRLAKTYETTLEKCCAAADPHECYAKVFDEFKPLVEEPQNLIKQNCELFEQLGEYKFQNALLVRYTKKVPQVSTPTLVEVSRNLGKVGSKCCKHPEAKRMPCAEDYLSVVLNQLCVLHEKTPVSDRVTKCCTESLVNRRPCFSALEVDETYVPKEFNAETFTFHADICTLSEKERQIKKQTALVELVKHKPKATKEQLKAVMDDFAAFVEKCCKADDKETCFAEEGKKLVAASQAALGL
albumin, sequence (P02768 25-609, species assumed): as the sequence (P02768 25-609) above

## COc1cccc2c1C(=O)c1c(O)c3c(c(O)c1C2=O)C[C@@](O)(/C(CO)=N/NC(=O)CCCCCN1C(=O)C=CC1=O)C[C@@H]3O[C@H]1C[C@H](N)[C@H](O)[C@H](C)O1 [DOXO-EMCH]
[1]
  maximum tolerated dose relative to unmodified doxorubicin: 2-10 times

## O=C([O-])CN(CCN(CC(=O)[O-])CC(=O)O)CCN(CC(=O)[O-])CC(=O)O.[Gd+3] [DTPA-Gd, Gadolinium (III)—diethyltriaminepentaacetic acid]
[2]
  extravasation observed by MRI: Rapid extravasation

## C=CC1=C(C)/C(=C/c2[nH]c(Cc3[nH]c(/C=C4\NC(=O)C(C)=C4C=C)c(C)c3CCC(=O)O)c(CCC(=O)O)c2C)NC1=O [bilirubin]
albumin
  affinity / dissociation constant to albumin (in words): nanomolar affinity

## O=C1OC2(c3ccc(O)cc3Oc3cc(O)ccc32)c2ccccc21 [fluorescein]
[3]
  patients with nausea and vomit: up to 20%
HSA
  pKd: 4.12
[4]; t1/2 (monophasic profile)
  half-life: 4.6 min
[4]; mice, 20 nmol into the tail vein, plasma
  time after injection at which no longer detectable: 30 min
[5]
  time after which staining of the blood vessels not detectable: 20 min
[6]
  half-life: 12.5 min

## O=C(NCCc1ccccc1)c1ccc2c(c1)C(=O)OC21c2ccc(O)cc2Oc2cc(O)ccc21 [phenethylamine-FAM]
HSA
  pKd: 4.77
[4]; t1/2, α
  half-life: 5 min
[4]; t1/2, β
  half-life: 53 min
